The test has as its system HBV. Kind of test: HBV-DNA antiviral assay using HepG2.117 cells (intracellular HBV DNA by qPCR). The note with it: HBV DNA inhibition, 3 days incubation, read-out: EC50. The test is classed as cell-based, HBV genotype D. The procedure, abridged:
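HepG2.117 cells (stably integrated genotype D HBV, Tet-off) seeded without doxycycline to induce pgRNA, then treated next day with 9 concentrations (4-fold dilutions, 2% DMSO) for 3 days at 37 °C. Intracellular HBV DNA quantified by qPCR against standard curve, viability by ATP content; inhibition relative to DMSO control, EC50/EC90/CC50 by non-linear regression.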
A general note: Quantitative PCR measures a nucleic acid by following its amplification.

Setting [1] is: Hepatitis B virus, HepG2.117, 72 h.

Where two headings read alike, the source gives them in different places. Bounds are passed on as bounds.

What is called EC50 is the concentration giving half of the maximal effect. `Cc1nc2cc(-n3c(C(=O)NCc4ccccc4-c4ccncn4)c4n(c3=O)CC(C)N(C(=O)c3ccc(Br)c(C(F)(F)F)c3)C4)ccc2o1` (single isomer, unassigned) [Compound 48a]: under setting [1], the EC50 fell in the range of 50 to 500 nM. Same read-out and setting: next, `CC1Cn2c(c(C(=O)NCc3ccccc3-c3cccc(N)n3)n(-c3ccc(OC4CC4)cc3)c2=O)CN1C(=O)c1ccc(Br)c(C(F)(F)F)c1` (single isomer, unassigned) [Compound 27a]: below 50 nM. As for `CC1Cn2c(c(C(=O)NCc3ccccc3-c3ccnc(N)n3)n(-c3ccc(OC4CC4)cc3)c2=O)CN1C(=O)c1ccc(Br)c(Cl)c1` (single isomer, unassigned) [Compound 11b, N-[[2-(2-aminopyrimidin-4-yl)phenyl]methyl]-7-(4-bromo-3-chloro-benzoyl)-2-[4-(cyclopropoxy)phenyl]-6-methyl-3-oxo-6,8-dihydro-5H-imidazo[1,5-a]pyrazine-1-carboxamide], the EC50 was in the range of 50 to 500 nM. Regarding `CC1Cn2c(c(C(=O)NCc3c(F)cccc3-c3cccnn3)n(-c3ccc(OC4CC4)cc3)c2=O)CN1C(=O)c1ccc(Br)c(C(F)(F)F)c1` (single isomer, unassigned) [Compound 50b], the concentration giving a half-maximal response (EC50) is below 50 nM. Turning to `CC1Cn2c(c(C(=O)NCc3ccccc3-n3cc(N)cn3)n(-c3ccc(OC4CC4)cc3)c2=O)CN1C(=O)c1ccc(Br)c(Cl)c1` (single isomer, unassigned) [Compound 19b], the 50% effective concentration (EC50) lay within 50 to 500 nM. Consider `CC1Cn2c(c(C(=O)NCc3c(F)cccc3Cl)n(-c3ccc4c(cnn4CC(F)(F)F)c3)c2=O)CN1C(=O)c1ccc(Br)c(C(F)(F)F)c1` (single isomer, unassigned) [Compound 104b], for which the EC50 was 50 to 500 nM. Turning to `CC1Cn2c(c(C(=O)NCc3ccccc3-c3ccncn3)n(-c3ccc(OCC4(O)CC4)cc3)c2=O)CN1C(=O)c1ccc(Br)c(C(F)(F)F)c1` (single isomer, unassigned) [Compound 74b], the concentration for a half-maximal effect (EC50) under setting [1] is below 50 nM. On the same count and under the same terms, the figure for `C[C@@H]1Cn2c(c(C(=O)NCc3ccccc3-c3ccccn3)n(-c3ccc(OC[C@](C)(O)C(F)(F)F)cc3)c2=O)CN1C(=O)c1ccc(Br)c(C(F)(F)F)c1` (stereo in doubt) [Compound 90a, rac-(6R)-7-[4-bromo-3-(trifluoromethyl)benzoyl]-6-methyl-3-oxo-N-[[2-(2-pyridyl)phenyl]methyl]-2-[4-[rac-(2S)-3,3,3-trifluoro-2-hydroxy-2-methyl-propoxy]phenyl]-6,8-dihydro-5H-imidazo[1,5-a]pyrazine-1-carboxamide] is 50 to 500 nM; for `O=C(NCc1ccccc1)c1c2n(c(=O)n1-c1ccc(N3CC4CC[C@H]3CO4)cc1)CCN(C(=O)c1ccc(Br)c(Cl)c1)C2` (single isomer, unassigned) [Compound 125a] it is 50 to 500 nM.

For the compound `CC1Cn2c(c(C(=O)NCc3ccccc3-c3ncccn3)n(-c3ccc4nn(C[C@@H](O)C(F)(F)F)cc4c3)c2=O)CN1C(=O)c1ccc(Br)c(C(F)(F)F)c1` (single isomer, unassigned) [Compound 105a], the concentration for a half-maximal effect (EC50) under setting [1] was below 50 nM. With `CC1Cn2c(c(C(=O)NCc3ccccc3-c3nccc(N)n3)n(-c3ccc(OC4CC4)cc3)c2=O)CN1C(=O)c1ccc(Br)c(C(F)(F)F)c1` (single isomer, unassigned) [Compound 29b], the EC50 was below 50 nM. On to `Cn1cnc2cc(-n3c(C(=O)NCc4ccccc4)c4n(c3=O)CCN(C(=O)c3ccc(Br)c(Cl)c3)C4)ccc21` [Compound 123, N-benzyl-7-(4-bromo-3-chloro-benzoyl)-2-(1-methylbenzimidazol-5-yl)-3-oxo-6,8-dihydro-5H-imidazo[1,5-a]pyrazine-1-carboxamide], for which the 50% effective concentration (EC50) under setting [1] lay within 500 to 5000 nM. On to `CC1Cn2c(c(C(=O)NCc3ccccc3-c3ncccn3)n(-c3ccc4c(cnn4CC(F)(F)F)c3)c2=O)CN1C(=O)c1ccc(Br)c(C(F)(F)F)c1` (single isomer, unassigned) [Compound 100b], for which the EC50 is below 50 nM.

For the compound `Cc1nnc(-c2cccc(F)c2CNC(=O)c2c3n(c(=O)n2-c2ccc(OC4CC4)cc2)CC(C)N(C(=O)c2ccc(Br)c(Cl)c2)C3)o1` (single isomer, unassigned) [Compound 45a], the EC50 under setting [1] was in the range of 50 to 500 nM. Regarding `Cc1nnc(-c2ccccc2CNC(=O)c2c3n(c(=O)n2-c2ccc(OC4CC4)cc2)CC(C)N(C(=O)c2ccc(Br)c(C(F)(F)F)c2)C3)o1` (single isomer, unassigned) [Compound 47a], the concentration giving a half-maximal response (EC50) under setting [1] is below 50 nM. On the same count and under the same terms, next, `C[C@@H]1Cn2c(c(C(=O)NCc3ccccc3-c3ccncn3)n(-c3ccc(OCC4(O)CC4)cc3)c2=O)CN1C(=O)c1ccc(Br)c(C(F)(F)F)c1` (racemic) [Compound 74a, rac-(6R)-7-[4-bromo-3-(trifluoromethyl)benzoyl]-2-[4-[(1-hydroxycyclopropyl)methoxy]phenyl]-6-methyl-3-oxo-N-[(2-pyrimidin-4-ylphenyl)methyl]-6,8-dihydro-SH-imidazo[1,5-a]pyrazine-1-carboxamide]: 50 to 500 nM; `C[C@H]1Cn2c(c(C(=O)NCc3ccccc3-c3ncccn3)n(-c3ccc(N4CC5(CN(C)C5)C4)cc3)c2=O)CN1C(=O)c1ccc(Br)c(C(F)(F)F)c1` (racemic) [Compound 78b, rac-(6S)-7-[4-bromo-3-(trifluoromethyl)benzoyl]-6-methyl-2-[4-(6-methyl-2,6-diazaspiro[3.3]heptan-2-yl)phenyl]-3-oxo-N-[(2-pyrimidin-2-ylphenyl)methyl]-6,8-dihydro-SH-imidazo[1,5-a]pyrazine-1-carboxamide]: 50 to 500 nM.

Turning to `CC1Cn2c(c(C(=O)NCc3ccccc3-c3cccnn3)n(-c3ccc(OCC(C)(O)C(F)(F)F)cc3)c2=O)CN1C(=O)c1ccc(Br)c(C(F)(F)F)c1` (stereo not shown) [Compound 85a, 7-(4-bromo-3-(trifluoromethyl)benzoyl)-6-methyl-3-oxo-N-(2-(pyridazin-3-yl)benzyl)-2-(4-(3,3,3-trifluoro-2-hydroxy-2-methylpropoxy)phenyl)-2,3,5,6,7,8-hexahydroimidazo[1,5-a]pyrazine-1-carboxamide], under setting [1], the concentration giving a half-maximal response (EC50) was in the range of 50 to 500 nM.

Take `O=C(NCc1ccccc1-c1ncccn1)c1c2n(c(=O)n1-c1ccc(OC3CC3)cc1)CC(CN1CCOCC1)N(C(=O)c1ccc(Br)c(C(F)(F)F)c1)C2` (single isomer, unassigned) [Compound 132b]: the half-maximal effective concentration (EC50) lay in the range of 500 to 5000 nM. As to `CC1Cn2c(c(C(=O)NCc3ccccc3-c3ccncn3)n(-c3ccc4nn(CC(F)(F)F)cc4c3)c2=O)CN1C(=O)c1ccc(Br)c(C(F)(F)F)c1` (single isomer, unassigned) [Compound 79a], under setting [1], the EC50 lay within 50 to 500 nM. As to `CC1Cn2c(c(C(=O)NCc3ccccc3-n3cc(F)cn3)n(-c3ccc(N4CCO[C@H](C)C4)cc3)c2=O)CN1C(=O)c1ccc(Br)c(Cl)c1` (stereo in doubt) [Compound 14a, (6R*)-7-(4-bromo-3-chloro-benzoyl)-N-[[2-(4-fluoropyrazol-1-yl)phenyl]methyl]-6-methyl-2-[4-[(2R)-2-methylmorpholin-4-yl]phenyl]-3-oxo-6,8-dihydro-5H-imidazo[1,5-a]pyrazine-1-carboxamide], under setting [1], the 50% effective concentration (EC50) was 50 to 500 nM.

For the compound `CC1Cn2c(c(C(=O)NCc3ccccc3-c3ccn(CC(F)(F)F)n3)n(-c3ccc(N4CC5(CN(C)C5)C4)cc3)c2=O)CN1C(=O)c1ccc(Br)c(C(F)(F)F)c1` (single isomer, unassigned) [Compound 99a], the concentration for a half-maximal effect (EC50) under setting [1] was in the range of 50 to 500 nM.

(Values after patent US11845752B2, “Substituted imidazo[1,5-a]pyrazines for the treatment of hepatitis B” (ALIGOS THERAPEUTICS, INC., priority 2020, dated 2023).)
